Tests used:
Danio rerio embryo [1] = assay: EC50 Curvature_Increase
Procedure: (§1)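 Zebrafish embryos (UFZ-OBI strain) were exposed from 2 hpf for 48 h (2 dpf) or 96 h (4 dpf) at 28 °C; spontaneous tail coiling was scored at 25 hpf. Morphological features from automated image analysis (FishInspector), heart rate and locomotor response were fitted with drc models. Quantal endpoints were dichotomised at 2.5 SD from controls and fitted with a log-logistic model; heart rate, pigmentation and STC were normalised to the replicate control mean. Betamethasone was tested as betamethasone dipropionate, diflorasone as diflorasone diacetate.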

Danio rerio embryo [2] = assay: EC20 LMR dark; higher = less potent; conditions: exposure time: 4 dpf
Procedure: as §1

Danio rerio embryo [3] = assay: EC10 Eye-jaw distance_Decrease; higher = less potent; conditions: exposure time: 4 dpf
Procedure: as §1

Danio rerio embryo [4] = assay: EC20 Eye-jaw distance_Decrease; higher = less potent; conditions: exposure time: 4 dpf
Procedure: as §1

Danio rerio embryo [5] = conditions: exposure time: 4 dpf
Procedure: as §1

Danio rerio embryo [6] = assay: EC10 Otolith-eye distance_Decrease; higher = less potent; conditions: exposure time: 4 dpf
Procedure: as §1

Danio rerio embryo [7] = tested on: Danio rerio embryo
Procedure: as §1

Danio rerio embryo [8] = assay: EC20 Body length_Decrease; higher = less potent
Procedure: as §1

Danio rerio embryo [9] = assay: EC20 Bladder size_Decrease; higher = less potent; conditions: exposure time: 4 dpf
Procedure: as §1

Danio rerio embryo [10] = assay: EC50 Eye size_Decrease
Procedure: as §1

Danio rerio embryo [11] = assay: EC10 Bladder size_Decrease; higher = less potent; conditions: exposure time: 4 dpf
Procedure: as §1

Danio rerio embryo [12] = assay: EC20 Curvature_Increase; higher = less potent
Procedure: as §1

Danio rerio embryo [13] = assay: EC50 Eye-jaw distance_Decrease; conditions: exposure time: 4 dpf
Procedure: as §1

Danio rerio embryo [14] = assay: EC10 LMR dark; higher = less potent; conditions: exposure time: 4 dpf
Procedure: as §1

Danio rerio embryo [15] = assay: EC50 Otolith-eye distance_Decrease; conditions: exposure time: 4 dpf
Procedure: as §1

Danio rerio embryo [16] = assay: EC10 Curvature_Increase; higher = less potent
Procedure: as §1

Danio rerio embryo [17] = assay: EC50 Yolk sac size_Increase; conditions: exposure time: 4 dpf
Procedure: as §1

Danio rerio embryo [18] = assay: EC20 Otolith-eye distance_Decrease; higher = less potent; conditions: exposure time: 4 dpf
Procedure: as §1

Danio rerio embryo [19] = assay: EC20 Pericard size_Increase; higher = less potent; conditions: exposure time: 4 dpf
Procedure: as §1

Danio rerio embryo [20] = assay: EC50 Bladder size_Decrease; conditions: exposure time: 4 dpf
Procedure: as §1

Danio rerio embryo [21] = assay: EC10 Body length_Decrease; higher = less potent
Procedure: as §1

Danio rerio embryo [22] = assay: EC20 Any effect; higher = less potent
Procedure: as §1

Danio rerio embryo [23] = assay: EC50 Pericard size_Increase; conditions: exposure time: 4 dpf
Procedure: as §1

Danio rerio embryo [24] = assay: EC10 Pericard size_Increase; higher = less potent; conditions: exposure time: 4 dpf
Procedure: as §1

Danio rerio embryo [25] = assay: EC10 Yolk sac size_Increase; higher = less potent; conditions: exposure time: 4 dpf
Procedure: as §1

Danio rerio embryo [26] = assay: EC50 Body length_Decrease
Procedure: as §1

Danio rerio embryo [27] = assay: EC20 Yolk sac size_Increase; higher = less potent; conditions: exposure time: 4 dpf
Procedure: as §1

Danio rerio embryo [28] = assay: EC50 Head trunk angle_Decrease; conditions: exposure time: 2 dpf
Procedure: as §1

Danio rerio embryo [29] = assay: spontaneous tail coiling frequency (coils/min/embryo); higher = more spontaneous movement; conditions: 25 hpf
Procedure: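 Spontaneous tail coilings of zebrafish embryos exposed from 2 hpf were recorded at 24-25 hpf in 1-min videos and detected by a KNIME workflow from grey-value variance. Betamethasone was tested as the dipropionate, diflorasone as the diacetate.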

Danio rerio embryo [30] = assay: EC10 Any effect; higher = less potent
Procedure: as §1

CCO/N=C(\CC)C1=C(O)CC(c2c(C)cc(C)cc2C)CC1=O (stereo not drawn) [Tralkoxydim]
Conditions | EC10 Any effect [µM] | EC10 Body length Decrease [µM] | EC10 Curvature Increase [µM] | EC20 Any effect [µM] | EC20 Body length Decrease [µM] | EC20 Curvature Increase [µM] | EC50 Any effect [µM] | EC50 Body length Decrease [µM] | EC50 Curvature Increase [µM] | EC50 Eye size Decrease [µM] | EC50 Otolith [µM] | EC50 STC decrease [µM] | spontaneous tail coiling frequency
Danio rerio embryo [1], exposure time: 2 dpf | – | – | – | – | – | – | – | – | 98.7 | – | – | – | –
Danio rerio embryo [1], exposure time: 4 dpf | – | – | – | – | – | – | – | – | 101 | – | – | – | –
Danio rerio embryo [7], exposure time: 2 dpf | – | – | – | – | – | – | 66 | – | – | – | 241 | – | –
Danio rerio embryo [7], exposure time: 4 dpf | – | – | – | – | – | – | 68.9 | – | – | – | – | – | –
Danio rerio embryo [7], exposure time: 25 h | – | – | – | – | – | – | – | – | – | – | – | 171 | –
Danio rerio embryo [8], exposure time: 2 dpf | – | – | – | – | 45.5 | – | – | – | – | – | – | – | –
Danio rerio embryo [8], exposure time: 4 dpf | – | – | – | – | 91.9 | – | – | – | – | – | – | – | –
Danio rerio embryo [10], exposure time: 2 dpf | – | – | – | – | – | – | – | – | – | 164 | – | – | –
Danio rerio embryo [10], exposure time: 4 dpf | – | – | – | – | – | – | – | – | – | 104 | – | – | –
Danio rerio embryo [12], exposure time: 2 dpf | – | – | – | – | – | 84.7 | – | – | – | – | – | – | –
Danio rerio embryo [12], exposure time: 4 dpf | – | – | – | – | – | 90.7 | – | – | – | – | – | – | –
Danio rerio embryo [16], exposure time: 2 dpf | – | – | 77.4 | – | – | – | – | – | – | – | – | – | –
Danio rerio embryo [16], exposure time: 4 dpf | – | – | 85.2 | – | – | – | – | – | – | – | – | – | –
Danio rerio embryo [21], exposure time: 2 dpf | – | 36.6 | – | – | – | – | – | – | – | – | – | – | –
Danio rerio embryo [21], exposure time: 4 dpf | – | 85.8 | – | – | – | – | – | – | – | – | – | – | –
Danio rerio embryo [22], exposure time: 2 dpf | – | – | – | 47.2 | – | – | – | – | – | – | – | – | –
Danio rerio embryo [22], exposure time: 4 dpf | – | – | – | 52.7 | – | – | – | – | – | – | – | – | –
Danio rerio embryo [26], exposure time: 2 dpf | – | – | – | – | – | – | – | 66.2 | – | – | – | – | –
Danio rerio embryo [26], exposure time: 4 dpf | – | – | – | – | – | – | – | 103 | – | – | – | – | –
Danio rerio embryo [29], 30.4 µM | – | – | – | – | – | – | – | – | – | – | – | – | 2.43
Danio rerio embryo [29], 60.7 µM | – | – | – | – | – | – | – | – | – | – | – | – | 2.33
Danio rerio embryo [29], 91.1 µM | – | – | – | – | – | – | – | – | – | – | – | – | 4.43
Danio rerio embryo [29], 121.4 µM | – | – | – | – | – | – | – | – | – | – | – | – | 3.17
Danio rerio embryo [29], 151.8 µM | – | – | – | – | – | – | – | – | – | – | – | – | 1.92
Danio rerio embryo [29], 197.3 µM | – | – | – | – | – | – | – | – | – | – | – | – | 0.957
Danio rerio embryo [29], 258 µM | – | – | – | – | – | – | – | – | – | – | – | – | 0
Danio rerio embryo [30], exposure time: 2 dpf | 38.8 | – | – | – | – | – | – | – | – | – | – | – | –
Danio rerio embryo [30], exposure time: 4 dpf | 45.1 | – | – | – | – | – | – | – | – | – | – | – | –

Conditions | EC10 Bladder size Decrease [µM] | EC10 Eye-jaw distance Decrease [µM] | EC10 LMR dark [µM] | EC10 Otolith-eye distance Decrease [µM] | EC10 Pericard size Increase [µM] | EC10 Yolk sac size Increase [µM] | EC20 Bladder size Decrease [µM] | EC20 Eye-jaw distance Decrease [µM] | EC20 LMR dark [µM] | EC20 Otolith-eye distance Decrease [µM] | EC20 Pericard size Increase [µM] | EC20 Yolk sac size Increase [µM] | EC50 Bladder size Decrease [µM] | EC50 Eye-jaw distance Decrease [µM] | EC50 Head trunk angle Decrease [µM] | EC50 LMR dark [µM] | EC50 Otolith-eye distance Decrease [µM] | EC50 Pericard size Increase [µM] | EC50 Yolk sac size Increase [µM]
Danio rerio embryo [2] | – | – | – | – | – | – | – | – | 1.56 | – | – | – | – | – | – | – | – | – | –
Danio rerio embryo [3] | – | 84.3 | – | – | – | – | – | – | – | – | – | – | – | – | – | – | – | – | –
Danio rerio embryo [4] | – | – | – | – | – | – | – | 89 | – | – | – | – | – | – | – | – | – | – | –
Danio rerio embryo [5] | – | – | – | – | – | – | – | – | – | – | – | – | – | – | – | 85.8 | – | – | –
Danio rerio embryo [6] | – | – | – | 77.1 | – | – | – | – | – | – | – | – | – | – | – | – | – | – | –
Danio rerio embryo [9] | – | – | – | – | – | – | 51.9 | – | – | – | – | – | – | – | – | – | – | – | –
Danio rerio embryo [11] | 47.1 | – | – | – | – | – | – | – | – | – | – | – | – | – | – | – | – | – | –
Danio rerio embryo [13] | – | – | – | – | – | – | – | – | – | – | – | – | – | 97.9 | – | – | – | – | –
Danio rerio embryo [14] | – | – | 0.149 | – | – | – | – | – | – | – | – | – | – | – | – | – | – | – | –
Danio rerio embryo [15] | – | – | – | – | – | – | – | – | – | – | – | – | – | – | – | – | 116 | – | –
Danio rerio embryo [17] | – | – | – | – | – | – | – | – | – | – | – | – | – | – | – | – | – | – | 65.3
Danio rerio embryo [18] | – | – | – | – | – | – | – | – | – | 89.6 | – | – | – | – | – | – | – | – | –
Danio rerio embryo [19] | – | – | – | – | – | – | – | – | – | – | 104 | – | – | – | – | – | – | – | –
Danio rerio embryo [20] | – | – | – | – | – | – | – | – | – | – | – | – | 61.3 | – | – | – | – | – | –
Danio rerio embryo [23] | – | – | – | – | – | – | – | – | – | – | – | – | – | – | – | – | – | 106 | –
Danio rerio embryo [24] | – | – | – | – | 103 | – | – | – | – | – | – | – | – | – | – | – | – | – | –
Danio rerio embryo [25] | – | – | – | – | – | 37.4 | – | – | – | – | – | – | – | – | – | – | – | – | –
Danio rerio embryo [27] | – | – | – | – | – | – | – | – | – | – | – | 45.9 | – | – | – | – | – | – | –
Danio rerio embryo [28] | – | – | – | – | – | – | – | – | – | – | – | – | – | – | 120 | – | – | – | –
